Assay results taken from patent US10513521B2, “Compositions and methods for inhibiting BMP” (The Brigham and Women's Hospital, Inc., priority 2014, dated 2019).
Residue numbers refer to the chain shown, from its start.

Assays:
ALK2 [1] = target: T1, ALK2 (Mus musculus, UniProt P37172); assay: HTRF pSMAD1 cell-based ALK2 assay (C2C12 cells, BMP6 as agonist); settings: cell-based assay, BMP6; read-out: Cell IC50 BMP6
T1 construct: The C2C12 cell line was selected for the measurement of ALK2 activity using BMP6 as the agonist; host or cells: C2C12
T1 sequence (P37172 21-509): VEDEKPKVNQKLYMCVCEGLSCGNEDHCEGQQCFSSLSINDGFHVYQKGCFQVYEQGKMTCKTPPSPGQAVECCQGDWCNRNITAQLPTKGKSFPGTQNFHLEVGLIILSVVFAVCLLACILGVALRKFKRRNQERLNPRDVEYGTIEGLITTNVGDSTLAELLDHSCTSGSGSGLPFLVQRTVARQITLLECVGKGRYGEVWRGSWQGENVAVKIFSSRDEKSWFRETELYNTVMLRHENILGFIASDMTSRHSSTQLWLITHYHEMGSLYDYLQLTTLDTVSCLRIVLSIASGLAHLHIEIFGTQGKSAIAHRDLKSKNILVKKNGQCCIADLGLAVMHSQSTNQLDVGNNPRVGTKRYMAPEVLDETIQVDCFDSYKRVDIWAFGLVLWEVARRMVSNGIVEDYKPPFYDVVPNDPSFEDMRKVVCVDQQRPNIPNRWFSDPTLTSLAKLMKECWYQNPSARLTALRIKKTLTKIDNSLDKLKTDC
Method in brief: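 Phospho-SMAD1 HTRF readout, detection incubated overnight at room temperature. Before that: starved cells in 0.1% FBS for 4 h, 30 min compound pretreatment, then 30 min agonist, BMP6 on C2C12 or BMP9 on BAOEC.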

[2] = Cell-based assay, TGFb1 (Cell IC50)
ALK1 = ALK1 (Homo sapiens, UniProt P37023); assay: TR-FRET enzymatic ALK kinase assay, ALK1
Sequence of ALK1 (P37023 22-503): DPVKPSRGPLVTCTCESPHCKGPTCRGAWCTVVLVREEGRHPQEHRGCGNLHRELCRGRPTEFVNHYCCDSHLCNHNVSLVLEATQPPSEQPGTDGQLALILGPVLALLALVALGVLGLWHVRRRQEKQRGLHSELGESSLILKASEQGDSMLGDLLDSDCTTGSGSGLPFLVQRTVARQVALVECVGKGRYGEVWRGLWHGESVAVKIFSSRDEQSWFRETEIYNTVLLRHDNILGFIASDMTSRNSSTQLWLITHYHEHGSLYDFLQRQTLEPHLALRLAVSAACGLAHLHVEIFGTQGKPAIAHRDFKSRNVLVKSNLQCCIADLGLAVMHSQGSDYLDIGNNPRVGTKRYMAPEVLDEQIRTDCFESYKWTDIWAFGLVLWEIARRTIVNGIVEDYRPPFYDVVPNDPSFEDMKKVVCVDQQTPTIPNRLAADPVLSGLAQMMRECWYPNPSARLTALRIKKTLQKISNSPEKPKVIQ
Method: (§1) Briefly, the ALKs enzymatic assay was initiated by dispense 2.5 μl enzyme in 1× kinase reaction buffer. The assay plate was then added with compounds followed by incubation at room temperature for 10 minutes. Then 2.5 μl/well substrate was added.

ALK2 [3] = target: T2, ALK2 (Homo sapiens, UniProt Q04771); assay: TR-FRET enzymatic ALK kinase assay, ALK2
T2 sequence (Q04771 21-509): T1 sequence (P37172 21-509) with V1M, Q10P, I121L, E162D, S310P
Method: as §1

ALK3 = ALK3 (Homo sapiens, UniProt P36894); assay: TR-FRET enzymatic ALK kinase assay, ALK3
Sequence of ALK3 (P36894 24-532): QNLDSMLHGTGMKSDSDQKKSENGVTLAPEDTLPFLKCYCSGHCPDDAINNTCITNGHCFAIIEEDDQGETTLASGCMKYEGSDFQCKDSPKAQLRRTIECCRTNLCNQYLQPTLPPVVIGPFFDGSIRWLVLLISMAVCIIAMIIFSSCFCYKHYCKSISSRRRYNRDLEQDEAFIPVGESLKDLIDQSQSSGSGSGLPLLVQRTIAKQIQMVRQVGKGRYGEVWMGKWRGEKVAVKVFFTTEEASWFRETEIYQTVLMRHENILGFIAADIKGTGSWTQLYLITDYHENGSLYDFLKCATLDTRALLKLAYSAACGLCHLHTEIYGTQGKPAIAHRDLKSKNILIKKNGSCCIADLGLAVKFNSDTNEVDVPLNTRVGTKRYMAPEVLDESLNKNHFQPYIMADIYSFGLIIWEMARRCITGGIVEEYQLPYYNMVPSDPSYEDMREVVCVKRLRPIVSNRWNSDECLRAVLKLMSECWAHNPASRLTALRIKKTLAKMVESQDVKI
Method: as §1

ALK4 = target: T3, ALK4 (Homo sapiens, UniProt P36896); assay: TR-FRET enzymatic ALK kinase assay, ALK4
T3 sequence (P36896 24-505): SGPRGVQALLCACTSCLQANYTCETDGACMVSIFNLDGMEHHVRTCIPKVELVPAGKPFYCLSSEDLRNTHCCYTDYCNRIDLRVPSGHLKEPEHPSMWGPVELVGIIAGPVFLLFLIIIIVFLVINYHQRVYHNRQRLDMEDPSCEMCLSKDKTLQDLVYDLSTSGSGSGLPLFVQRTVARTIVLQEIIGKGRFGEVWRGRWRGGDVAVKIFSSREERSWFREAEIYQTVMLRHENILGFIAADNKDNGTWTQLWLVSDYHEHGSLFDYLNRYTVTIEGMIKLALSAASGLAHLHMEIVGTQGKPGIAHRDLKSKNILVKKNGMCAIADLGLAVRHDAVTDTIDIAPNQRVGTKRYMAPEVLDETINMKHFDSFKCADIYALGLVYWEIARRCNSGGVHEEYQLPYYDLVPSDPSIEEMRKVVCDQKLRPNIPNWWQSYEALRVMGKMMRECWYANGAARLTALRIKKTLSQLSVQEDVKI
Method: as §1

ALK5 = target: T4, ALK5 (Homo sapiens, UniProt P36897); assay: TR-FRET enzymatic ALK kinase assay, ALK5
T4 sequence (P36897 34-503): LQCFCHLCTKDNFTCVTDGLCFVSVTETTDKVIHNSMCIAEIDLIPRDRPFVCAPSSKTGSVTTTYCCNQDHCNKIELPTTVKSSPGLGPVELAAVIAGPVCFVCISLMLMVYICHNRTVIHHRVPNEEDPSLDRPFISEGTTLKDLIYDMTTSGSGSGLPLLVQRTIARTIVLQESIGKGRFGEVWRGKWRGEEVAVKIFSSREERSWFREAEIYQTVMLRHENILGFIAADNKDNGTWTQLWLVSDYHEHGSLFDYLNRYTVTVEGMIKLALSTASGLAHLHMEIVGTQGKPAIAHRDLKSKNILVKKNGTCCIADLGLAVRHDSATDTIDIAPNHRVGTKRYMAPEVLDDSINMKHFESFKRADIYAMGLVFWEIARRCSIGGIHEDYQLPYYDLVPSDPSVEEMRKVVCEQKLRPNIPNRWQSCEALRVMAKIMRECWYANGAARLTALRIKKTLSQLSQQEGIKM
Method: Six ALK kinase enzyme assays were developed for determination of compound activities on ALK1, ALK2, ALK3, ALK4, ALK5 and ALK6.
as §1

ALK6 = ALK6 (Homo sapiens, UniProt O00238); assay: TR-FRET enzymatic ALK kinase assay, ALK6
Sequence of ALK6 (O00238 14-502): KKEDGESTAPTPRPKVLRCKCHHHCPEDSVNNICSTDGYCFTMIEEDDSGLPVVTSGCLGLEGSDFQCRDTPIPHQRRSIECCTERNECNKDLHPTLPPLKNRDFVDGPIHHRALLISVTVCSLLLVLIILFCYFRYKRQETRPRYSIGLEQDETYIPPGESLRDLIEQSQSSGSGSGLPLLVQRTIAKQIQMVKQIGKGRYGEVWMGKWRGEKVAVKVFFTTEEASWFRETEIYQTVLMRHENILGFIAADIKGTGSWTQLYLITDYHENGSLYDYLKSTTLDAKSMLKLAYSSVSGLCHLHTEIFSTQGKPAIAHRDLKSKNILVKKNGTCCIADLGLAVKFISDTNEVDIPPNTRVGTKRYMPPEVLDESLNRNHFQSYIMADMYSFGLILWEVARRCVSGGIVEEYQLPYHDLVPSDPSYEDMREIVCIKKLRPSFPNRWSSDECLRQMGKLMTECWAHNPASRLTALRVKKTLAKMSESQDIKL
Method: as §1

SMILES | IC50 (ALK2 [1]) [nM] | IC50 [2] [µM] | IC50 (ALK1) [nM] | IC50 (ALK2 [3]) [nM] | IC50 (ALK3) [nM] | IC50 (ALK4) [µM] | IC50 (ALK5) [µM] | IC50 (ALK6) [µM]
C[C@@H]1CNC[C@H](C)N1c1ccc(-c2cnc3c(-c4ccc(-c5nn[nH]n5)c5ccccc45)cnn3c2)cc1 [Compound 26, 3-(4-(1H-tetrazol-5-yl)naphthalen-1-yl)-6-(4-((2R,6S)-2,6-dimethylpiperazin-1-yl)phenyl)pyrazolo[1,5-a]pyrimidine] | 2990 | 1.85 | 48 | 13 | 391 | 3.04 | 6.11 | 1.91
CNS(=O)(=O)c1cccc2c(-c3cnn4cc(-c5ccc(N6[C@H](C)CNC[C@@H]6C)cc5)cnc34)cccc12 [Compound 41, 5-(6-(4-((2R,6S)-2,6-dimethylpiperazin-1-yl)phenyl)pyrazolo[1,5-a]pyrimidin-3-yl)-N-methylnaphthalene-1-sulfonamide] | 148 | 2.94 | 540 | 120 | 1600 | > 10 | > 10 | 6.5
NS(=O)(=O)c1cccc(-c2cnn3cc(-c4ccc(CCN5CCCCC5)cc4)cnc23)c1 [Compound 75, 3-(6-(4-(2-(piperidin-1-yl)ethyl)phenyl)pyrazolo[1,5-a]pyrimidin-3-yl)benzenesulfonamide] | 467 | 13.5 | 570 | 120 | 6300 | > 10 | > 10 | > 10
CNS(=O)(=O)c1cccc(-c2cnn3cc(-c4ccc(N5[C@H](C)CNC[C@@H]5C)cc4)cnc23)c1 [Compound 76, 3-(6-(4-((2R,6S)-2,6-dimethylpiperazin-1-yl)phenyl)pyrazolo[1,5-a]pyrimidin-3-yl)-N-methylbenzenesulfonamide] | 67 | 0.79 | 58 | 20 | 890 | 4.8 | > 10 | > 10
CCNS(=O)(=O)c1cccc(-c2cnn3cc(-c4ccc(N5[C@H](C)CNC[C@@H]5C)cc4)cnc23)c1 [Compound 77, 3-(6-(4-((2R,6S)-2,6-dimethylpiperazin-1-yl)phenyl)pyrazolo[1,5-a]pyrimidin-3-yl)-N-ethylbenzenesulfonamide] | 28 | 0.423 | 110 | 31 | 2100 | 4.3 | > 10 | > 10
Fc1ccc(-c2cnn3cc(-c4ccc(CCN5CCCCC5)cc4)cnc23)cc1-c1nnn[nH]1 [Compound 78, 3-(4-fluoro-3-(1H-tetrazol-5-yl)phenyl)-6-(4-(2-(piperidin-1-yl)ethyl)phenyl)pyrazolo[1,5-a]pyrimidine] | 70000 | 100 | 150 | 16 | 190 | > 10 | > 10 | 0.24
C[C@@H]1CNC[C@H](C)N1c1ccc(-c2cnc3c(-c4cc(C#N)cc(S(N)(=O)=O)c4)cnn3c2)cc1 [Compound 79, 3-cyano-5-(6-(4-((2R,6S)-2,6-dimethylpiperazin-1-yl)phenyl)pyrazolo[1,5-a]pyrimidin-3-yl)benzenesulfonamide] | 8930 | 10.1 | 1200 | 190 | > 10000 | > 10 | > 10 | > 10
CN1CCC(c2ccc(-c3cnc4c(-c5ccc(S(N)(=O)=O)c6ccccc56)cnn4c3)cc2)CC1 [Compound 80, 4-(6-(4-(1-methylpiperidin-4-yl)phenyl)pyrazolo[1,5-a]pyrimidin-3-yl)naphthalene-1-sulfonamide] | 1850 | > 100 | 160 | 35 | > 10000 | > 10 | > 10 | > 10
C[C@@H]1CNC[C@H](C)N1c1ccc(-c2cnc3c(-c4cccc(C(F)(F)F)c4)cnn3c2)cc1 [Compound 81, 6-(4-((2R,6S)-2,6-dimethylpiperazin-1-yl)phenyl)-3-(3-(trifluoromethyl)phenyl)pyrazolo[1,5-a]pyrimidine] | 27400 | > 100 | 880 | 170 | > 10000 | > 10 | > 10 | > 10
C[C@@H]1CNC[C@H](C)N1c1ccc(-c2cnc3c(-c4ccc(F)c(C#N)c4)cnn3c2)cc1 [Compound 84, 5-(6-(4-((2R,6S)-2,6-dimethylpiperazin-1-yl)phenyl)pyrazolo[1,5-a]pyrimidin-3-yl)-2-fluorobenzonitrile] | 2080 | 10 | 860 | 120 | > 10000 | > 10 | > 10 | > 10
C[C@@H]1CNC[C@H](C)N1c1ccc(-c2cnc3c(-c4ccc(N)c(S(N)(=O)=O)c4)cnn3c2)cc1 [Compound 85, 2-amino-5-(6-(4-((2R,6S)-2,6-dimethylpiperazin-1-yl)phenyl)pyrazolo[1,5-a]pyrimidin-3-yl)benzenesulfonamide] | 110 | 5.57 | 120 | 39 | 1700 | 7.3 | > 10 | > 10
CS(=O)(=O)c1cccc(-c2cnn3cc(-c4ccc(CCN5CCCCC5)cc4)cnc23)c1 [Compound 86, 3-(3-(methylsulfonyl)phenyl)-6-(4-(2-(piperidin-1-yl)ethyl)phenyl)pyrazolo[1,5-a]pyrimidine] | 419 | 57 | 170 | 37 | 1500 | > 10 | > 10 | > 10
NS(=O)(=O)c1ccc(-c2cnn3cc(-c4ccc(OC5(CN6CCCCC6)COC5)cc4)cnc23)c2ccccc12 [Compound 87, 4-(6-(4-((3-(piperidin-1-ylmethyl)oxetan-3-yl)oxy)phenyl)pyrazolo[1,5-a]pyrimidin-3-yl)naphthalene-1-sulfonamide] | 479 | 30 | 84 | 23 | 1800 | > 10 | > 10 | > 10
